Experimental data published in patent publication US20080234262A1 (Wyeth, priority 2007, published 2008).
pIC50: −log10 of the molar value.

The molecules below were run on breast line MDA468 (assay: In vitro cell culture growth assay (MTS), MDA468). Conditions: Homo sapiens, 72 h, MDA468 cells, three days after drug treatment.
Type: cell-based, human
Description: Human tumor cell lines used include prostate lines LNCap and PC3MM2, breast lines MDA468, MCF7, renal line HTB44 (A498), colon line HCT116, and ovarian line OVCAR3. Cells were plated in 96-well culture plates. One day following plating, the inhibitors were added to cells. Three days after drug treatment, viable cell densities were determined by metabolic conversion (by viable cells) of the dye MTS, a well established cell proliferation assay. The assays were performed using an assay kit purchased from Promega Corp. (Madison, Wis.) following the protocol supplied with the kit. The MTS assay results were read in a 96-well plate reader by measuring absorbance at 490 nm. The effect of each treatment was calculated as percent of control growth relative to the vehicle-treated cells grown in the same culture plate.

SMILES	pIC50
CONC(=O)Nc1ccc(-c2nc(N3CCOCC3)c3cnn(C4CCN(Cc5ccccc5)CC4)c3n2)cc1 [Compound 286, 1-{4-[1-(1-benzylpiperidin-4-yl)-4-morpholin-4-yl-1H-pyrazolo[3,4-d]pyrimidin-6-yl]phenyl}-3-methoxyurea]	6.70
CN(C)NC(=O)Nc1ccc(-c2nc(N3CCOCC3)c3cnn(C4CCN(Cc5ccccc5)CC4)c3n2)cc1 [Compound 290, N-{4-[1-(1-benzylpiperidin-4-yl)-4-morpholin-4-yl-1H-pyrazolo[3,4-d]pyrimidin-6-yl]phenyl}-2,2-dimethylhydrazinecarboxamide]	5.10
CNC(=O)Cc1ccc(-c2nc(N3CCOCC3)c3cnn(C4CCN(Cc5ccccc5)CC4)c3n2)cc1 [Compound 371, 2-{4-[1-(1-benzylpiperidin-4-yl)-4-morpholin-4-yl-1H-pyrazolo[3,4-d]pyrimidin-6-yl]phenyl}-N-methylacetamide]	5.00
CCNC(=O)Nc1ccc(-c2nc(N3CCOCC3)c3cnn(C4CCN(Cc5ccccc5)CC4)c3n2)cc1 [Compound 499, 1-{4-[1-(1-benzylpiperidin-4-yl)-4-morpholin-4-yl-1H-pyrazolo[3,4-d]pyrimidin-6-yl]phenyl}-3-ethylurea]	6.46
O=C(Nc1ccccc1)Nc1ccc(-c2nc(N3CCOCC3)c3cnn(C4CCN(Cc5ccccc5)CC4)c3n2)cc1 [Compound 503, 1-{4-[1-(1-benzylpiperidin-4-yl)-4-morpholin-4-yl-1H-pyrazolo[3,4-d]pyrimidin-6-yl]phenyl}-3-phenylurea]	5.98
O=C(NCCO)Nc1ccc(-c2nc(N3CCOCC3)c3cnn(C4CCN(Cc5ccccc5)CC4)c3n2)cc1 [Compound 510, 1-{4-[1-(1-benzylpiperidin-4-yl)-4-morpholin-4-yl-1H-pyrazolo[3,4-d]pyrimidin-6-yl]phenyl}-3-(2-hydroxyethyl)urea]	7.30
CN(C)CCNC(=O)Nc1ccc(-c2nc(N3CCOCC3)c3cnn(C4CCN(Cc5ccccc5)CC4)c3n2)cc1 [Compound 513, 1-{4-[1-(1-benzylpiperidin-4-yl)-4-morpholin-4-yl-1H-pyrazolo[3,4-d]pyrimidin-6-yl]phenyl}-3-[2-(dimethylamino)ethyl]urea]	6.22
CN1CCC(NC(=O)Nc2ccc(-c3nc(N4CCOCC4)c4cnn(C5CCN(Cc6ccccc6)CC5)c4n3)cc2)CC1 [Compound 517, 1-{4-[1-(1-benzylpiperidin-4-yl)-4-morpholin-4-yl-1H-pyrazolo[3,4-d]pyrimidin-6-yl]phenyl}-3-(1-methylpiperidin-4-yl)urea]	5.92
CONC(=O)Nc1ccc(-c2nc(N3CCOCC3)c3cnn(C4CCN(Cc5ccccc5)CC4)c3n2)cc1 [Compound 532, 1-{4-[1-(1-benzylpiperidin-4-yl)-4-morpholin-4-yl-1H-pyrazolo[3,4-d]pyrimidin-6-yl]phenyl}-3-methoxyurea]	6.80
O=C(NCCF)Nc1ccc(-c2nc(N3CCOCC3)c3cnn(C4CCN(Cc5ccccc5)CC4)c3n2)cc1 [Compound 534, 1-{4-[1-(1-benzylpiperidin-4-yl)-4-morpholin-4-yl-1H-pyrazolo[3,4-d]pyrimidin-6-yl]phenyl}-3-(2-fluoroethyl)urea]	7.56
CN(C)NC(=O)Nc1ccc(-c2nc(N3CCOCC3)c3cnn(C4CCN(Cc5ccccc5)CC4)c3n2)cc1 [Compound 536, N-{4-[1-(1-benzylpiperidin-4-yl)-4-morpholin-4-yl-1H-pyrazolo[3,4-d]pyrimidin-6-yl]phenyl}-2,2-dimethylhydrazinecarboxamide]	5.10
O=C(Nc1ccc(-c2nc(N3CCOCC3)c3cnn(C4CCN(Cc5ccccc5)CC4)c3n2)cc1)NC1CC1 [Compound 556, 1-{4-[1-(1-benzylpiperidin-4-yl)-4-morpholin-4-yl-1H-pyrazolo[3,4-d]pyrimidin-6-yl]phenyl}-3-cyclopropylurea]	5.98
O=C(Nc1ccc(-c2nc(N3CCOCC3)c3cnn(C4CCN(Cc5ccccc5)CC4)c3n2)cc1)Nc1ncc[nH]1 [Compound 570, 1-{4-[1-(1-benzylpiperidin-4-yl)-4-morpholin-4-yl-1H-pyrazolo[3,4-d]pyrimidin-6-yl]phenyl}-3-(1H-imidazol-2-yl)urea]	5.46
CNC(=O)Cc1ccc(-c2nc(N3CCOCC3)c3cnn(C4CCN(Cc5ccccc5)CC4)c3n2)cc1 [Compound 616, 2-{4-[1-(1-benzylpiperidin-4-yl)-4-morpholin-4-yl-1H-pyrazolo[3,4-d]pyrimidin-6-yl]phenyl}-N-methylacetamide]	5.00
CNC(=O)Nc1ccc(-c2nc(N3CCOCC3)c3cnn(C4CCN(C(=O)OC)CC4)c3n2)cc1 [Compound 721, methyl 4-(6-{4-[(methylcarbamoyl)amino]phenyl}-4-morpholin-4-yl-1H-pyrazolo[3,4-d]pyrimidin-1-yl)piperidine-1-carboxylate]	7.10
COC(=O)N1CCC(n2ncc3c(N4CCOCC4)nc(-c4ccc(NC(=O)NCCF)cc4)nc32)CC1 [Compound 732, methyl 4-[6-(4-{[(2-fluoroethyl)carbamoyl]amino}phenyl)-4-morpholin-4-yl-1H-pyrazolo[3,4-d]pyrimidin-1-yl]piperidine-1-carboxylate]	7.05
COC(=O)N1CCC(n2ncc3c(N4CCOCC4)nc(-c4ccc(NC(=O)NC5CC5)cc4)nc32)CC1 [Compound 734, methyl 4-(6-{4-[(cyclopropylcarbamoyl)amino]phenyl}-4-morpholin-4-yl-1H-pyrazolo[3,4-d]pyrimidin-1-yl)piperidine-1-carboxylate]	6.82
COC(=O)N1CCC(n2ncc3c(N4CCOCC4)nc(-c4ccc(NC(=O)Nc5ccccc5)cc4)nc32)CC1 [Compound 735, methyl 4-(6-{4-[(anilinocarbonyl)amino]phenyl}-4-morpholin-4-yl-1H-pyrazolo[3,4-d]pyrimidin-1-yl)piperidine-1-carboxylate]	7.10
COC(=O)N1CCC(n2ncc3c(N4CCOCC4)nc(-c4ccc(N)cc4)nc32)CC1 [Compound 741, methyl 4-[6-(4-aminophenyl)-4-morpholin-4-yl-1H-pyrazolo[3,4-d]pyrimidin-1-yl]piperidine-1-carboxylate]	4.92
CNC(=O)Nc1ccc(-c2nc(N3CCOCC3)c3cnn(C4CCN(C(=O)OC(C)C)CC4)c3n2)cc1 [Compound 752, isopropyl 4-(6-{4-[(methylcarbamoyl)amino]phenyl}-4-morpholin-4-yl-1H-pyrazolo[3,4-d]pyrimidin-1-yl)piperidine-1-carboxylate]	7.28
CC(C)(C)OC(=O)N1CCC(n2ncc3c(N4CCOCC4)nc(-c4ccc(NC(=O)NCCF)cc4)nc32)CC1 [Compound 765, tert-butyl 4-[6-(4-{[(2-fluoroethyl)carbamoyl]amino}phenyl)-4-morpholin-4-yl-1H-pyrazolo[3,4-d]pyrimidin-1-yl]piperidine-1-carboxylate]	6.44
CC(C)(C)OC(=O)N1CCC(n2ncc3c(N4CCOCC4)nc(-c4ccc(NC(=O)NC5CC5)cc4)nc32)CC1 [Compound 767, tert-butyl 4-(6-{4-[(cyclopropylcarbamoyl)amino]phenyl}-4-morpholin-4-yl-1H-pyrazolo[3,4-d]pyrimidin-1-yl)piperidine-1-carboxylate]	6.15
CC(C)OC(=O)N1CCC(n2ncc3c(N4CCOCC4)nc(-c4ccc(NC(=O)NCCF)cc4)nc32)CC1 [Compound 833, isopropyl 4-[6-(4-{[(2-fluoroethyl)carbamoyl]amino}phenyl)-4-morpholin-4-yl-1H-pyrazolo[3,4-d]pyrimidin-1-yl]piperidine-1-carboxylate]	6.60
CC(C)OC(=O)N1CCC(n2ncc3c(N4CCOCC4)nc(-c4ccc(NC(=O)NC5CC5)cc4)nc32)CC1 [Compound 835, isopropyl 4-(6-{4-[(cyclopropylcarbamoyl)amino]phenyl}-4-morpholin-4-yl-1H-pyrazolo[3,4-d]pyrimidin-1-yl)piperidine-1-carboxylate]	6.49
COC(=O)N1CCC(n2ncc3c(N4CCOCC4)nc(-c4ccc(NC(=O)Nc5ccc(N6CCN(C)CC6)cc5)cc4)nc32)CC1 [Compound 910, methyl 4-{6-[4-({[4-(4-methylpiperazin-1-yl)phenyl]carbamoyl}amino)phenyl]-4-morpholin-4-yl-1H-pyrazolo[3,4-d]pyrimidin-1-yl}piperidine-1-carboxylate]	9.10
COC(=O)N1CCC(n2ncc3c(N4CCOCC4)nc(-c4ccc(NC(=O)Nc5ccc(CCO)cc5)cc4)nc32)CC1 [Compound 913, methyl 4-{6-[4-({[4-(2-hydroxyethyl)phenyl]carbamoyl}amino)phenyl]-4-morpholin-4-yl-1H-pyrazolo[3,4-d]pyrimidin-1-yl}piperidine-1-carboxylate]	8.89

Same assay, conditions: MDA468 cells, three days after drug treatment

SMILES	pIC50
CNC(=O)Nc1ccc(-c2nc(N3CCOCC3)c3cnn(C4CCN(C(=O)OC(C)(C)C)CC4)c3n2)cc1 [Compound 582, tert-butyl 4-(6-{4-[(methylcarbamoyl)amino]phenyl}-4-morpholin-4-yl-1H-pyrazolo[3,4-d]pyrimidin-1-yl)piperidine-1-carboxylate]	6.68
CNC(=O)Nc1ccc(-c2nc(N3CCOCC3)c3cnn(C4CCN(C(=O)OC(C)(C)C)CC4)c3n2)cc1 [Compound 583, tert-butyl 4-(6-{4-[(methylcarbamoyl)amino]phenyl}-4-morpholin-4-yl-1H-pyrazolo[3,4-d]pyrimidin-1-yl)piperidine-1-carboxylate]	6.35
CNC(=O)Nc1ccc(-c2nc(N3CCOCC3)c3cnn(C4CCN(C(=O)OC)CC4)c3n2)cc1 [Compound 720, methyl 4-(6-{4-[(methylcarbamoyl)amino]phenyl}-4-morpholin-4-yl-1H-pyrazolo[3,4-d]pyrimidin-1-yl)piperidine-1-carboxylate]	7.02
